# Data published in patent US20020164367A1, “Botanical drug for increasing immunity and decreasing side effects of chemotherapy” (priority 2001, published 2002).
# Assays:
# chick myocardial cell = test: Survival rate of chick myocardial cells after Adriamycin induced damage (ABC immunoperoxidase staining); assay type: cell-based; settings: Adriamycin 10μ for 24 hours after 4 days in culture; BDI 150 μg/ml
# Description: Hears were removed from 11 days embryos and were dissociated at 37 C. for 45 minutes with 0.25% trypsin (sigma, type III), 0.025% collagenase (sigma, type I), and 0.005% pancreatin (NBCO) prepared in calcium and magnesium free saline G containing 4% chicken serum. Then the tissue was dispersed into a single cell suspension in culture medium containing 5 g/ml DNAse I (sigma). Viable cell counts were determined by hemocyometer counting. Cells were dispersed into 60 mm culture disher (surface area 2000 mm^2) at densities of 200 cells/mm^2.
# Cultures were maintained in Ham's F-12K cln^− modified and supplemented with 5% fetal bovine serum. Tissue culture plates were incubated under at constant 5% CO2 and 95% air at 37° C. Cells counted—all cells were counted in 20 randomly selected fields across the entire dish. A Zeiss microscope 25× objective having a field of view of 0.32 mm^2 was used for cell counting.
# Monoclonal antibodies (diluted 1:1000 in PBS/BSA) were used. Immunostaining procedure used modified method of immunoperoxidase staining as follows.
# Culture plates were added antibody of cardiac myosin before 3 hours for staining. Then culture plates continuous incubated 3 hours at 37° C.
# Cell determined by recording the color and the number of microscopic fields (250×). Normal cells were light green and dead cells were brown or very dark green. […]
# DNA viruses = settings: by weight; cited from earlier work
# host cell = settings: by weight; cited from earlier work
# Interleukin-2 (rIL-2) = test: Effect of BDI on Interleukin-2 (rIL-2); assay type: in vivo; settings: n=10
# Source text: The methods of determination rIL-2 were regular.
# lymphocytes = settings: 3H-TdR 1 μCi/ml, PHA stimulated
# Description: 0.2 ml of formic acid was then added for digestion till the precipitate was dissolved.
# peritoneal macrophage = settings: macrophages with phagocytized chick red blood cells per 100 macrophages; BDI 5.5 mg/kg ip daily for 5 days; cyclophosphamide 4.5 mg/kg ip
# Description: Male mice weight 18-20 g were used in the experiments and were divided into treated (BDI) and control groups. The dosage of BDI was 5.5 mg/kg injected intraperitoneally. The control mice were injected with same volume of normal saline. These injections were repeated daily for 5 days, both treated and control group were injected intraperitoneally with cyclosphosphamide.
# Added 0.02 ml of 5% washed chick red blood cell suspension to 0.5 ml of the peritoneal exudates. Shook gently to mix and incubate at 37° C. for 5 minutes. Dipped two cover slips, closed to each other, in the above mixture and incubated for 30 minutes for the migration of the macrophages along the cover slips, fixed and stained with Sharma stain. Examined microscopically for:
# Phagocytic rate—number of macrophages with phagocytized chick red blood cells per 100 macrophages counted.
# white blood cells = settings: rats, 10 days of treatment
# [1] = system: bone marrow stem cells (CFU-S); settings: mice, n=10
structure (smiles),measurement,setting,value
COc1cccc2c1C(=O)c1c(O)c3c(c(O)c1C2=O)C[C@@](O)(C(=O)CO)C[C@@H]3O[C@H]1C[C@H](N)[C@H](O)[C@H](C)O1 [Adriamycin],Survival rate (living/taotalx 100%),chick myocardial cell,36.0 ± 0.25 (*20) %
Nc1ccn([C@@H]2O[C@H](CO)[C@@H](O)[C@@H]2O)c(=O)n1 [Cytarabine],Effectiveness relative to Idoxuridine,DNA viruses,about 10 times
same,Toxicity for host cell relative to Idoxuridine,host cell,10 times
O=P1(N(CCCl)CCCl)NCCCO1 (centres unmarked) [Cyclophosphamide],IL-2 (U/ml) ± SD,Interleukin-2 (rIL-2),47.5 ± 5.5 U/ml
same,CPM ± SD (lymphoblastoid transformation),lymphocytes,600 ± 65 CPM
same,Phagocytic (rate ± SD),peritoneal macrophage,8.5 ± 0.90
same,White blood cells x 10^3/cm^3 ± SD,white blood cells,6.0 ± 0.70 10^3/cm^3
same,Mean (CFU-S ± SD),[1],7.6 ± 0.8
